Measurements taken from patent US9060541B2, “Sterilizer for foods” (Kawakami Co., Ltd., priority 2009, dated 2015).
Where two headings read alike, the source gives them in different places.

Legend:
Format in all cases: cell-based
Parameters in all cases: key: D: There is no sterilization effect.; C: There is a sterilization effect in step (1) but no sterilization effect in step (2).; B: There is a sterilization effect up to step (2) but no sterilization effect in step (3).; A: There is a sterilization effect up to step (3)
[1] = tested on: Vibrio parahaemolyticus AQ3815; assay: Comparison test of sterilization effects against various food poisoning microbes
Vibrio mimicus KX-M5 = assay: as above
[2] = tested on: Salmonella serotype Agona KX-S143; assay: as above
[3] = tested on: Salmonella serotype Rissen KX-S151; assay: as above
[4] = tested on: Salmonella serotype Enteritidis KX-S148; assay: as above
[5] = tested on: Shigella dysenteriae serotype 2 KX-H214
[6] = tested on: Shigella flexneri subtype 1b KX-H273; assay: Comparison test of sterilization effects against various food poisoning microbes
Aeromonas sobria KX-A435 = assay: as above
[7] = tested on: Enterotoxigenic Escherichia coli RIMD 0509267; assay: as above
[8] = tested on: Enterohemorrhagic Escherichia coli O157:H7 EDL 933
[9] = tested on: Pseudomonas anguilliseptica NCMB1950; assay: Comparison test of sterilization effects against various food poisoning microbes
[10] = tested on: Lactobacillus plantarum RIMD 1202001; assay: as above
[11] = tested on: Clostridium perfringens NCTC8237
[12] = tested on: Campylobacter jejuni subsp. Jejuni JCM2013; assay: Comparison test of sterilization effects against various food poisoning microbes
[13] = tested on: Campylobacter coli JCM 2529; assay: as above
[14] = Table 7, test microbe solution without yeast extract
[15] = Table 8, yeast extract 4 weight % blended in test microbe solution

Structure (SMILES)	Sterilization effect [1, 14]	Sterilization effect [1, 15]	Sterilization effect (Vibrio mimicus KX-M5; [14])	Sterilization effect (Vibrio mimicus KX-M5; [15])	Sterilization effect [2, 14]	Sterilization effect [2, 15]	Sterilization effect [3, 14]	Sterilization effect [3, 15]	Sterilization effect [4, 14]	Sterilization effect [4, 15]	Sterilization effect [5, 14]	Sterilization effect [5, 15]	Sterilization effect [6, 14]	Sterilization effect [6, 15]	Sterilization effect (Aeromonas sobria KX-A435; [14])	Sterilization effect (Aeromonas sobria KX-A435; [15])	Sterilization effect [7, 14]	Sterilization effect [7, 15]	Sterilization effect [9, 14]	Sterilization effect [9, 15]	further results
CCO [EtOH 30%, ethanol]	B	C	C	C	C	C	C	C	C	C	C	C	C	D	B	C	D	D	B	B	Sterilization effect [8]: D; Sterilization effect [10, 14]: C; Sterilization effect [10, 15]: D; Sterilization effect [11, 14]: D; Sterilization effect [11, 15]: D; Sterilization effect [12, 14]: B; Sterilization effect [12, 15]: B; Sterilization effect [13, 14]: B; Sterilization effect [13, 15]: B
[Na+].[O-]Cl [S.H 150 ppm, sodium hypochlorite]	A	C	A	D	A	D	A	D	A	D	A	C	A	D	A	D	A	D	A	D	Sterilization effect [8, 14]: A; Sterilization effect [8, 15]: D; Sterilization effect [10, 14]: A; Sterilization effect [10, 15]: D; Sterilization effect [11, 14]: A; Sterilization effect [11, 15]: D; Sterilization effect [12, 14]: A; Sterilization effect [12, 15]: C; Sterilization effect [13, 14]: A; Sterilization effect [13, 15]: C
